# Patent US6150357A, “Potassium channel agonists” (Merck & Co., Inc., priority 1999, dated 2000)
# Entries after “also recorded” stand apart in the source; their conditions may differ. Like-named read-outs stand apart in the source and are kept apart here.
# Tests used:
# Format in all cases: cell-based
# [1] = test system: guinea pig isolated ventricular myocytes; assay: Action potential studies in guinea pig isolated ventricular myocytes
# Source text: Isolation of guinea pig ventricular myocytes. Guinea pig ventricular myocytes were isolated as described (Salata J J, Jurkiewicz N K, Wallace A A, Stupienski R F III, Guinosso P J Jr and Lynch J J Jr. (1995). Cardiac electrophysiologic actions of the histamine H1 -receptor antagonists astemizole and terfenadine compared with chlorpheniramine and pyrilamine. Circ Res 76: 110-119.). After isolation, the cells were stored in HEPES-buffered saline (HBS) containing (mM): 132 NaCl, 4 KCl, 1.8 CaCl2, 1.2 MgCl2, 10 HEPES (formal name N-2-Hydoxyethylpiperazine-N-2-ethanesulfonic acid), 10 glucose, pH=7.2, at 24-26° C. until studied, usually within 8 hours after isolation.
# Action potential studies. Transmembrane potentials were recorded using conventional microelectrodes filled with 3 M KCl (tip resistances 30-50 M.OMEGA.) using an Axoclamp 2B amplifier (Axon Instruments; Foster City, Calif.) as described (Fermini B, Jurkiewicz N K, Jow B, Guinosso P J Jr, Baskin E P, Lynch J J Jr and Salata J J. (1995). Use-dependent effects of the Class III antiarrhythmic agent NE-10064 (azimilide) on cardiac repolarization: Block of delayed rectifier potassium and L-type calcium currents. J Cardiovasc Pharmacol 26: 259-271.). Cells were superfused with HBS maintained at 37° C. at a rate of 2 ml/min. APs were evoked with brief current pulses (1 ms, 1.2 times threshold) delivered at a frequency of 1 Hz through the recording electrode using an active bridge circuit. Only cells showing normal AP configurations and resting membrane potentials equal to or more negative than -85 mV were used in this study. APs were studied after a ≥5 min control period, and after ≥5 min of superfusion with each concentration of drug. After reaching a steady state effect under each condition, 20 individual APs were sampled and digitally averaged. The amplitude at 50 ms (APA50 ms) and duration at 90% repolarization (APD90) were measured from the digitally averaged records. Concentration-response relationships were determined by measuring APs or currents in each cell under control conditions and during superfusion with successively increasing concentrations of a given drug.
# (§1) Solutions. Compounds were dissolved in dimethyl sulfoxide (DMSO) at a stock concentration of 1 or 10 mM and diluted directly into test solutions. Serial dilutions were used to achieve the final test concentrations. DMSO at the concentrations used had no significant effect on any of the parameters measured in these studies. Nisoldipine was prepared as a 4 mM stock solution in DMSO and diluted as needed.
# (§2) Statistics. Data are expressed as mean ± SEM (N=number of cells). Concentration-dependent changes in AP parameters and individual ionic currents were assessed by repeated-measures analysis of variance (ANOVA). Post-Hoc comparison of the treatment to the control means were made with Dunnett's t-test to determine significant changes between the control and test group means. Statistical comparisons for the time constants of IKs activation and deactivation were made using a paired t-test. A one-tailed probability (p)<0.05 was considered significant.
# [2] = test system: slowly activating cardiac delayed rectifier potassium current (IKs); assay: Whole-cell voltage-clamp of IKs in guinea pig ventricular myocytes; settings: 10 nM Iso alone; 0.5 s pulses
# Source text: (§3) Isolation of guinea pig ventricular myocytes.
# (§4) Voltage-clamp of guinea pig ventricular myocytes. […] Pipettes were made from square bore (1.0 mm, o.d.) borosilicate capillary tubing (Glass Co. of America, Bargaintown, N. J.). […] (average 5.5±0.3 M.OMEGA.). Series resistance was compensated 40-70%. Currents were low-pass filtered (-3 dB at 0.2 kHz) before digitization at 1 kHz. […] Cells were voltage clamped at a holding potential (Vh) of -50 mV to inactivate INa. Time-dependent IKs amplitude was measured as the difference from the initial instantaneous current, following the settling of the capacity transient, to the final current level at the end of a depolarizing pulse. Tail current amplitude, IKtail, was measured as the difference from the holding current level to the peak tail current amplitude upon return to Vh. IKtail was normalized to the maximum measured amplitude (IKtail-max) following 7.5 s pulses. Averaged data was fit to a Boltzmann distribution of the form: IKtail /IKtail-max =1/(1+exp[(V1/2 -Vt)/k]) with a nonlinear least squares fitting routine (Origin, Microcal Software, Northampton, Mass.) to estimate the half-point (V1/2) and slope factor (k) for this relationship. The time courses of IKs activation and deactivation were fit with a double exponential relationship of the form: It =A0 +A1 e^-t/t 1+A2 e^-t/t 2 using a Chebeshev non-iterative fitting technique (pCLAMP, Axon Instruments, Foster City, Calif.).
# (§5) Solutions. Compounds were dissolved in dimethyl sulfoxide (DMSO) at a stock concentration of 1 or 10 mM and diluted directly into test solutions. Serial dilutions were used to achieve the final test concentrations. […] Nisoldipine was prepared as a 4 mM stock solution in DMSO and diluted as needed.
# as §2
# [3] = biological target: T1, slowly activating cardiac delayed rectifier potassium current (IKs) (Cavia porcellus, UniProt O70344); assay: as above; settings: for V1/2 of IKs activation (isochronal, 7.5 s pulses): control 19.2±1.6 mV
# T1 construct: Guinea pig ventricular myocytes were isolated as described; endogenous in cells; host or cells: isolated guinea pig ventricular myocytes
# Source text: as §3, §4, §5, §2
# human KvLQT1 channels = biological target: T2, human KvLQT1 channels (Homo sapiens, UniProt P51787); assay: Two-microelectrode voltage clamp of cloned KvLQT1 channels expressed in Xenopus oocytes; settings: 1 μM
# T2 construct: homotetramer
# T2 sequence (P51787 whole entry): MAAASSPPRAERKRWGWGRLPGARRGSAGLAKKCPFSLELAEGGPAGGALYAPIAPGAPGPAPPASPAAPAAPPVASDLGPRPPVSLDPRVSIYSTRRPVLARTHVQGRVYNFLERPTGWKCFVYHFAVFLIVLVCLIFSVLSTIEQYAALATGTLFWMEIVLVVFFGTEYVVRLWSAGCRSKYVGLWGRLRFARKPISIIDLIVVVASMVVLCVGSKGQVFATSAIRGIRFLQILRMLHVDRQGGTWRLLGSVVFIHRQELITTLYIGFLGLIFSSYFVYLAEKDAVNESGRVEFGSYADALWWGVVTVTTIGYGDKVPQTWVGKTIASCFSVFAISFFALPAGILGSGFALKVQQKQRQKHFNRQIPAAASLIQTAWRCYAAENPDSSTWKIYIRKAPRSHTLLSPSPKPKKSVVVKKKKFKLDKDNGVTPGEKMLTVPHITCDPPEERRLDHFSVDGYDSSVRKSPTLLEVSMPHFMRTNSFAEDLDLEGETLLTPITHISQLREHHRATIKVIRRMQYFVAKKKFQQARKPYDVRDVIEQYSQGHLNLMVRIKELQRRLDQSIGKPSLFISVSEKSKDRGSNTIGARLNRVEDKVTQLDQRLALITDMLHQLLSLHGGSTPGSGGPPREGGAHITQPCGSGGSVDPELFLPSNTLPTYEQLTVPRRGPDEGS
# Method: cRNA injection and voltage-clamp of oocytes. The isolation and maintenance of Xenopus oocytes, in vitro transcription of KvLQT1 complementary RNA (cRNA) and its injection into oocytes were performed as described previously (Sanguinetti M C, Curran M E, Zou A, Shen J, Spector P S, Atkinson D L and Keating M T. (1996b). Coassembly of KvLQT1 and minK (IsK) proteins form cardiac IKs potassium channel. Nature 384: 80-83.; Sanguinetti M C, Jiang C, Curran M E and Keating M T. (1995). A mechanistic link between an inherited and an acquired cardiac arrhythmia: HERG encodes the IKr potassium channel. Cell 81: 299-307.). Stage V and VI oocytes were injected with 11.5 ng of KvLQT1 cRNA (46 nL of a 250 ng/μL solution) Currents were recorded 2 to 4 days later using standard two-microelectrode voltage clamp techniques and a Dagan TEV-200 amplifier. Oocytes were bathed at room temperature (22-25° C.) in a solution containing (mM): 94 NaCl, 2 KCl, 2 MgCl2, 0.1 CaCl2, 5 HEPES; pH 7.6.
# as §1
# [4] = 10 μM, read-out: Agonist Effect - % Increase in IKs, Vt +50 mV
# [5] = 1 μM, read-out: Agonist Effect - % Increase in IKs, Vt +50 mV
# [6] = 10 μM, read-out: Agonist Effect - % Increase in IKs, Vt -10 mV
smiles,measurement,setting,value
"CC(C)NCC(O)c1ccc(O)c(O)c1 (stereo not drawn) [Iso, isoproterenol, reference compound]",decrease in APD90,[1]; 30 nM Iso alone,12.9±2.9%
same,activation at 0.03 µM,"[1]; Cavia porcellus, Ventricular myocyte, 30 nM Iso alone, read-out: increase in APA50ms",6.6 ± 2.9%
same,increase in IKs,[2],1.75 fold
"Cc1cccc(N2C(=O)NC3(N=C(c4ccccc4)c4ccccc4N(C)C3=O)C2=O)c1 (stereo not drawn) [L6, 1-methyl-5-phenyl-1'-(3-tolyl)-spiro[3H-1,4-benzodiazepine-3,4'-imidazolidine]-2(1H),2',5'-trione]",activation at 10 µM,[3]; [4],31 ± 9%
"O=C1CC2(CCN(C(=O)Nc3ccccc3)CC2)Oc2ccccc21 [L7, N-phenyl-1'-(carboxamido)-spiro[2H-1-benzopyran-2,4'-piperidin]-4(3H)-one]","Agonist Effect - % Increase in IKs, Vt -10 mV",[3]; 1 μM,no change
same,activation at 1 µM,[3]; [5],111 ± 28%
"Cc1cccc(NC(=O)N2CCC3(CC2)CC(=O)c2ccccc2O3)c1 [L8, N-(3-tolyl)-1'-(carboxamido)-spiro[2H-1-benzopyran-2,4'-piperidin]-4(3H)-one]","Agonist Effect - % Increase in IKs, Vt -10 mV",[3]; 10 μM,no change
same,activation at 10 µM,[3]; [4],65 ± 17%
"CN1C(=O)[C@@H](Cc2c[nH]c3ccccc23)N=C(c2ccccc2F)c2ccccc21 [R-L3, (3-R)-1,3-dihydro-5-(2-fluorophenyl)-3-(1H-indol-3-ylmethyl)-1-methyl-2H-1,4-benzodiazepin-2-one]",decrease in APD90,[1]; 1 μM R-L3 in the continued presence of 100 nM timolol,14.6±2.2%
same,decrease in APD90,[1]; 1 μM R-L3 in the presence of 30 nM Iso,26.9±1.4%
same,decrease in APD90,"[1]; 1 μM, stimulation at 1 Hz",14.2±1.6%
same,decrease in APD90,"[1]; 10 μM, stimulation at 1 Hz",13.8±4.0%
same,effect on APD,"[1]; 0.1-1.0 μM, 1 Hz",concentration-dependent shortening of APD
same,concentration at which shortening of APD was maximal,[1]; 1 Hz,1 µM
same,net effect on rate of KvLQT1 activation,human KvLQT1 channels,slow the rate of KvLQT1 activation
same,shift in the voltage dependence of KvLQT1 activation,human KvLQT1 channels,-10 mV
same,effect on KvLQT1 current,human KvLQT1 channels; 2 s pulses to -70 to +60 mV,increased KvLQT1
same,slope factor (k) of KvLQT1 activation,human KvLQT1 channels; control 11 mV,13 mV
same,V1/2 of KvLQT1 activation,human KvLQT1 channels; control -28 mV,-40 mV
same,effect on rate of KvLQT1 deactivation,human KvLQT1 channels; voltages negative to -40 mV,slowed the rate of KvLQT1 deactivation
same,fold induction at 0.03 µM,"[3]; 30 nM, 3 s depolarizations to Vt -10 mV from Vh -50 mV, read-out: IKs increased by a factor",17 ± 5
same,"V1/2 of IKs activation (isochronal, 7.5 s pulses)",[3]; 0.1 μM,3.0±0.8 mV
same,activation at 0.1 µM,"[3]; 0.1 μM, read-out: Agonist Effect - % Increase in IKs, Vt +50 mV",25 ± 6%
same,activation at 0.1 µM,"[3]; 0.1 μM, read-out: Agonist Effect - % Increase in IKs, Vt -10 mV",431 ± 123%
same,fast time constants of IKs activation,[3]; 1 μM,"slightly, but not significantly, faster"
same,maximally activated IKs,"[3]; 1 μM, Vt +60 mV, control 896±196 pA, not significantly increased",953±183 pA
same,"V1/2 of IKs activation (isochronal, 7.5 s pulses)",[3]; 1 μM,-4.9±3.4 mV
same,shift of V1/2 of IKs activation,"[3]; 1 μM, following pretreatment with 100 nM timolol",-19 mV
same,activation at 1 µM,[3]; [5],40 ± 12%
same,effect on time-dependent IKs at the end of 7.5 s pulses,"[3]; 10 μM, Vh -50 mV","increased time-dependent IKs at the end of 7.5 s pulses to potentials <+10 mV, but decreased IKs at more positive potentials"
same,effect on slope factor k of IKs activation,"[3]; 0.1 and 1 μM, control k 11.0±1.2 mV",not significantly changed; also recorded: had no effect on k
same,fast and slow time constants of IKs deactivation,[3]; -60 to -10 mV following 3 s pre-pulse to +30 mV,significantly increased
same,lowest concentration enhancing IKs,[3]; Vt -10 mV,30 nM
same,concentration of maximal effect on IKs,"[3]; Vt -10 mV, 3 s pulses",1 µM
"O=C1Nc2ccccc2C(c2ccccc2F)=N[C@@H]1Cc1c[nH]c2ccccc12 [R-L4, (3-R)-1,3-dihydro-5-(2-fluorophenyl)-3-(1H-indol-3-ylmethyl)-2H-1,4-benzodiazepin-2-one]",activation at 1 µM,[3]; [5],44 ± 9%
same,activation at 1 µM,"[3]; 1 μM, read-out: Agonist Effect - % Increase in IKs, Vt -10 mV",27 ± 7%
same,activation at 10 µM,[3]; [4],114 ± 13%
same,activation at 10 µM,[3]; [6],153 ± 37%
"O=C1Nc2ccc(Cl)cc2C(c2ccccc2)=N[C@@H]1Cc1c[nH]c2ccccc12 [R-L5, (3-R)-7-chloro-1,3-dihydro-5-phenyl-3-(1H-indol-3-ylmethyl)-2H-1,4-benzodiazepin-2-one]",activation at 10 µM,[3]; [4],22 ± 6%
same,activation at 10 µM,[3]; [6],22 ± 10%
CN1C(=O)[C@H](Cc2c[nH]c3ccccc23)N=C(c2ccccc2F)c2ccccc21 [S-L3],inhibition at 1 µM,"[3]; 1 μM, end of a 1-s test pulse to +50 mV, read-out: block of IKs",14.8 ± 4.3%
same,inhibition at 10 µM,"[3]; 10 μM, end of a 1-s test pulse to +50 mV, read-out: block of IKs",68.8 ± 3.4%
same,effect on IKs,"[3]; 1 to 10 μM, test potentials -10 to +50 mV",blocked IKs at all concentrations
"CC(C)(C)NC[C@H](O)COc1nsnc1N1CCOCC1 [timolol, reference compound]",effect on AP configuration,[1]; 100 nM timolol,did not alter AP configuration
same,effect on the effects of 30 nM Iso on the action potential,[1]; 100 nM timolol,prevented the effects of 30 nM Iso
